The text below walks through data of paper PMC6257627, “Target Validation and Identification of Novel Boronate Inhibitors of the Plasmodium falciparum Proteasome” (Journal of Medicinal Chemistry, 2018).

Assay [1] relates to Cam3.II^R539T early ring stages. Put plainly: Isobologram analysis of interaction with DHA, 3 h pulse. The assay is classed as cell-based, P. falciparum. Particulars: early ring stages of K13 mutant Cam3.II^R539T, 3 h pulses. As to the method: (§1) Figure 1 Structures, proteasome inhibition, and isobologram analysis of selected compounds. (A) Structures of MPI-1, MPI-2, MPI-3, and MPI-4 (compounds 1–4). (B) GFP-DD transfectants were maintained in Shield-1 for 24 h before wash-out prior to setting up experiments. Trophozoites were re-exposed to Shield-1 or exposed to indicated compounds for 3 h. Results are representative of four independent experiments. (i) Cell extracts were analyzed by Western blot using anti-GFP or anti-PfBiP as a loading control. (ii) GFP fluorescence measured by flow cytometry. Dotted line represents background (fluorescence of sample after washout of Shield-1). Data are the mean ± range/2 for the readings in technical duplicate from one experiment. […]
For standard assays of antiplasmodial activity, sorbitol-treated ring stage parasites were incubated with the drugs for 72 h and viability was assessed in the second cycle.[12] […] Cells were then stained with 2 μM Syto-61 (Thermo Fisher Scientific), and their fluorescence was measured by flow cytometry (FACSCanto II cytometer; Becton Dickinson). Data were gated and analyzed using FCS Express software (version 3) to determine parasitemia of each sample. […] Interactions between DHA and MPI-1 or MPI-4 against the K13 mutant (DHA resistant) Cam3.II P. falciparum strain, exposed to a 3 h pulsed treatment, were determined at 4 h after invasion as described previously.[12]

In assay [2] the test system is P. falciparum proteasome activity in cells (GFP-DD transfectants). Put plainly: GFP-DD reporter degradation in transfectants (Western blot, flow cytometry). The assay is classed as cell-based. Particulars: trophozoites, 3 h exposure. As to the method: as §1, with “experiment. Curves are fitted with the sigmoidal four-parameter model. (C) Isobologram analysis of the interaction of test compounds and DHA. Cam3.II (DHA resistant) parasites at very early ring stages were subjected to 3 h pulses in the presence of different combinations of DHA and test compounds.” for “experiment.”
Trophozoite-stage parasite cultures (GFP-DD parasites) at 5% hematocrit and 5% parasitemia were subjected to the drug treatment indicated in the figure legends at 37 °C. […] Syto-61 and GFP fluorescence was recorded using the FACSCanto II cytometer (Becton Dickinson). […] Parasites were gated based on parasite GFP fluorescence, and values reported are mean fluorescence. […]

For assay [3], the target named is Pf20S β2 (Plasmodium falciparum, UniProt Q8I261+Q8I6T3). Put plainly: Kinetic analysis, Pf20S β2 (Ac-WLR-AMC). Type of assay: biochemical, P. falciparum. Particulars: Figure S3C. The procedure: (§2) Figure S 3. Kinetic analysis of MPI -4 against Pf20S and human constitutive 20S proteasome.
Pf20S β2, sequence (Q8I6T3 entry or part of it): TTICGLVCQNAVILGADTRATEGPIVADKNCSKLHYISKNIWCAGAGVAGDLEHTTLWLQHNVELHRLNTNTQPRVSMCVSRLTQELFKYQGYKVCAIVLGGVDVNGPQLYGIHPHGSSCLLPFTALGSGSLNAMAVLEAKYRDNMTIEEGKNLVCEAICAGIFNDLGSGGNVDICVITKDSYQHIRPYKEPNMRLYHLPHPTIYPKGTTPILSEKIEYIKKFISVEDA
Pf20S β2, sequence (Q8I261 entry or part of it): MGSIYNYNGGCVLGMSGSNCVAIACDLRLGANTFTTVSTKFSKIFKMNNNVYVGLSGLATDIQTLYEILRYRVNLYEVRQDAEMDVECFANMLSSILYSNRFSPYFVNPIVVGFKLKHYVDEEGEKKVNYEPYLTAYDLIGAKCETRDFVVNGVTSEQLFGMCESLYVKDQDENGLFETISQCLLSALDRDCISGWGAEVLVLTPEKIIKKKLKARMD
(§3) The association rate K on, half -life t 1/2 and equilibrium constant Ki for MPI -4 against human constitutive 20S (A, B) and Pf20S (C, D). 20S β2 (A, C) and β5 (B, D) activities were determined using fluorogenic substrates, Ac -RQR-AMC (human) or Ac -WLR-AMC ( P. falciparum ) and Ac - […]

Assay [4] deals with Pf20S β5 (Plasmodium falciparum, UniProt A0A5K1K7U1+Q8IJT1). Put plainly: Kinetic analysis, Pf20S β5 (Ac-WLA-AMC). The assay is classed as biochemical, P. falciparum. Particulars: Figure S3D. The procedure:
as §2, §3

The target in assay [5] is human constitutive 20S proteasome β2c (Homo sapiens, UniProt P49720+Q99436). Description: Kinetic analysis, human constitutive 20S β2 (Ac-RQR-AMC). The assay is classed as biochemical. The note with it: Figure S3A. The procedure: as §2, §3
Assay [6] has as its target T1, human constitutive 20S proteasome β5c (Homo sapiens, UniProt P20618+P28074).
T1 construct: Residue positions are calculated at the start of the processed protein, and the first residue (Thr 1)
Put plainly: Kinetic analysis, human constitutive 20S β5 (Ac-WLA-AMC). The assay is classed as biochemical. Particulars: Figure S3B. As to the method:
as §2, §3

In assay [7] the test system is 3D7 B2a. Description: 72 h viability assay, bortezomib-resistant clone B2a. The assay is classed as cell-based, Plasmodium falciparum. Particulars: mean ± SEM, n=3. As to the method: For standard assays of antiplasmodial activity, sorbitol-treated ring stage parasites were incubated with the drugs for 72 h and viability was assessed in the second cycle.[12] Drug pulse assays were performed as described previously.[47] For short pulse assays, tightly synchronized early ring stage parasites (1–3 h after invasion) at 0.2% hematocrit and 1–2% parasitemia were subjected to 3 h drug pulse at 37 °C and returned to culture until parasites reached trophozoite stage of the following cycle. Cells were then stained with 2 μM Syto-61 (Thermo Fisher Scientific), and their fluorescence was measured by flow cytometry (FACSCanto II cytometer; Becton Dickinson). Data were gated and analyzed using FCS Express software (version 3) to determine parasitemia of each sample. Viability represents the parasitemia normalized to untreated and “kill treated” controls, where “kill treated” refers to samples treated with 2 μM DHA for 48–72 h. Interactions between DHA and MPI-1 or MPI-4 against the K13 mutant (DHA resistant) Cam3.II P. falciparum strain, exposed to a 3 h pulsed treatment, were determined at 4 h after invasion as described previously.[12]
Prior to selection, an aliquot of the parental line was stocked as a reference for subsequent whole genome sequencing analysis. […] Paired-end reads were either aligned to the P. falciparum 3D7 reference genome (PlasmoDB version 13.0).

The subject of assay [8] is Cam3.II^R539T early ring stages. More on the design: method as in PMID 25901609. Particulars: P. falciparum in culture; cited from earlier work.

Where “and” joins values, the source holds several entries; their conditions need not be identical. Identical values can stand only once.

Pf20S β5, sequence (Q8IJT1 entry or part of it): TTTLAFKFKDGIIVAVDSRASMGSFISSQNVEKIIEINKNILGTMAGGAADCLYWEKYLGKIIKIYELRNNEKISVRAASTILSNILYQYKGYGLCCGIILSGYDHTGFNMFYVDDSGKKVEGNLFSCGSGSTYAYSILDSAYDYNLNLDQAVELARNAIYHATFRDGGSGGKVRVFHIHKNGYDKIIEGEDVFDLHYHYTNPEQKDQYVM
Pf20S β5, sequence (A0A5K1K7U1 entry or part of it): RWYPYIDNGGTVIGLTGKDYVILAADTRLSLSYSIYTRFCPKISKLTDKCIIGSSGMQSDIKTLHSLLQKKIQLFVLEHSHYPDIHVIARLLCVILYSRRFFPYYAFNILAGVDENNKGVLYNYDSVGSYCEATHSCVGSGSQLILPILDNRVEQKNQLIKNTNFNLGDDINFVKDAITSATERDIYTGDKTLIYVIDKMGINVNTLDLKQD

In the case of `CC(=O)N1CCC[C@@H]1C(=O)N[C@@H](C)C(=O)N[C@@H](Cc1ccccc1)B(O)O` [MPI-1], the “interaction with DHA” value in assay [1] was “pronounced synergistic interaction”. Also, the “inhibition of GFP-DD degradation in the absence of Shield-1” value in assay [2] is “a higher concentration of MPI-1 was needed to produce the same level of inhibition”.
With `CC(C)C[C@H](NC(=O)[C@H](Cc1ccccc1)NC(=O)Cc1ccc(O)cc1)B(O)O` [MPI-4], the koff – broadly, the first-order rate constant of dissociation – worked out at 0.000173 s⁻¹ in assay [3] (read-out: Koff, Pf 20S β2); 0.000181 s⁻¹ in assay [4] (read-out: Koff, Pf 20S β5); 0.00485 s⁻¹ in assay [5] (read-out: Koff, h20S β2); 0.000109 s⁻¹ in assay [6] (read-out: Koff, h20S β5). Besides, the kon (in general, the second-order rate constant of association) turned out to be 27200 M⁻¹ s⁻¹ in assay [3] (read-out: association rate Kon, Pf 20S β2); 41800 M⁻¹ s⁻¹ in assay [4] (read-out: association rate Kon, Pf 20S β5); 9960 M⁻¹ s⁻¹ in assay [5] (read-out: association rate Kon, h20S β2); 848000 M⁻¹ s⁻¹ in assay [6] (read-out: association rate Kon, h20S β5). Moreover, the Ki (usually a dissociation constant, usually derived from enzyme kinetics or from competition with a known ligand) in assay [3] (equilibrium constant, read-out: Ki, P. falciparum β2) was ~5 nM; in assay [4] (equilibrium constant, read-out: Ki, P. falciparum β5), ~5 nM; in assay [5] (equilibrium constant), 487 nM and 490 nM; in assay [6] (equilibrium constant) it was 0.1 nM. Also, the “interaction with DHA” value in assay [1] is “pronounced synergistic interaction”.
Take `CC(C)C[C@H](NC(=O)[C@H](Cc1ccccc1)NC(=O)c1cnccn1)B(O)O` [bortezomib, reference compound]: the “LD50 (72 h), 3D7 B2a” value in assay [7] amounted to 1.1 ± 0.1 µM. Further, in assay [8], the “interaction with DHA (earlier work)” value was “strong synergism”. The “inhibition of GFP-DD degradation in the absence of Shield-1” value in assay [2] was “prevented GFP-DD degradation”.
